Literature values in patent US6653293B1, “Methods, apparatuses and medicaments for treating body fluid related diseases” (priority 1992, dated 2003).

Tested on: infected T-4 lymphocytes
Conditions: in vitro, HIV-infected T-4 lymphocytes

In the case of tumor necrosis factor [TNF], the “death of infected cells” value is given as “subjects the infected cells to death” and the “time to coagulation of DNA of the infected T-4 lymphocytes after administration” value is given as “about 3 hours”.
